This assay addresses Inward rectifier potassium channel 2 (Homo sapiens) (UniProt P63252). The assay is described as follows: Inhibition of Kir2.1 (unknown origin) by patch clamp method. For orientation: Patch clamp records ionic current or voltage across a cell membrane.

Inward rectifier potassium channel 2 (Homo sapiens), sequence (P63252 whole entry, looked up): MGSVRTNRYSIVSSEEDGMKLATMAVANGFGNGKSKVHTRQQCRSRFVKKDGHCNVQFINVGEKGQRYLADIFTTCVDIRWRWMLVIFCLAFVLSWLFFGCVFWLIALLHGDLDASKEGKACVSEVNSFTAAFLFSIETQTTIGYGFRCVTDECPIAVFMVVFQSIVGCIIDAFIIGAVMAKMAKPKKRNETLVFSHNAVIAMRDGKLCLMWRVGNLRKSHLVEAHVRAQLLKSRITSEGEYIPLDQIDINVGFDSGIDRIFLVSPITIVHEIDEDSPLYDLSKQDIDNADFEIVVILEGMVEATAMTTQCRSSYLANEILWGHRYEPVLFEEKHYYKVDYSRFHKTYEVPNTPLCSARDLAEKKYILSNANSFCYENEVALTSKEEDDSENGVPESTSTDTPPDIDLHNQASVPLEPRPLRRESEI

In general, IC50 refers to the concentration at which inhibition is half-maximal. Lower therefore signals inhibition by little substance. For `C[C@H](CC[C@](C)(O)C(F)(F)F)[C@H]1CC[C@H]2[C@@H]3CC=C4C[C@@](C)(O)CC[C@]4(C)[C@H]3CC[C@]12C` [Dalzanemdor], the half-inhibitory concentration (IC50) was more than 30 µM.

These data come from BindingDB's records for PubMed 35785990 (Sage Therapeutics, 2022).
